pIC50: −log10 of the molar value. One block for each compound: values may come before it. Peptide text beside a SMILES is read from it.
Assays:
[1] = molecular target: T1, Matrix metalloproteinase-14 (Homo sapiens, UniProt P50281); experiment: Inhibition of MT1-MMP catalytic domain (unknown origin) expressed in Escherichia coli using 7-methoxycoumarin-4-yl)acetyl-Pro-Leu-Gly-Leu-(3-[2,4-dinitrophenyl]-L-2,3-diaminopropionyl)-Ala-Arg-NH2 as substrate incubated for 30 mins by fluorescence method
[2] = molecular target: Macrophage metalloelastase (Homo sapiens, UniProt P39900); experiment: Inhibition of recombinant human MMP12 using Mca-Pro-Leu-Gly-Leu-Dpa-Ala-Arg-NH2 as substrate by […] method
Sequence of Macrophage metalloelastase (P39900 whole entry): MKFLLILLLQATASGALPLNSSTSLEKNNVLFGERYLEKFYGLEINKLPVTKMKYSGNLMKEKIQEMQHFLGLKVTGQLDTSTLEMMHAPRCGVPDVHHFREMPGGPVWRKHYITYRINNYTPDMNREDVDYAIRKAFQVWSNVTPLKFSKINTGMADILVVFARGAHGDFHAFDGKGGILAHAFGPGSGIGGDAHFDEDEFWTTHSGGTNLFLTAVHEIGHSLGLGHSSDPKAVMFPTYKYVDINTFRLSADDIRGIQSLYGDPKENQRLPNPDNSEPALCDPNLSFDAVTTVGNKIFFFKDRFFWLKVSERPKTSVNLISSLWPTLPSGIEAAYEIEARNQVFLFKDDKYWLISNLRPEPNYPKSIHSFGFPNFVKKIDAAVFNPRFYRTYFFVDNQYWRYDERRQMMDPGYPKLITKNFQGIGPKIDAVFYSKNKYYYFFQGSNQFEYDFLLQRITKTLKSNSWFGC

[3] = molecular target: T2, 72 kDa type IV collagenase (Homo sapiens, UniProt P08253); experiment: Inhibition of human MMP2 measured at 5 mins interval for 1 hr by fluorescence method
T2 sequence (P08253 whole entry): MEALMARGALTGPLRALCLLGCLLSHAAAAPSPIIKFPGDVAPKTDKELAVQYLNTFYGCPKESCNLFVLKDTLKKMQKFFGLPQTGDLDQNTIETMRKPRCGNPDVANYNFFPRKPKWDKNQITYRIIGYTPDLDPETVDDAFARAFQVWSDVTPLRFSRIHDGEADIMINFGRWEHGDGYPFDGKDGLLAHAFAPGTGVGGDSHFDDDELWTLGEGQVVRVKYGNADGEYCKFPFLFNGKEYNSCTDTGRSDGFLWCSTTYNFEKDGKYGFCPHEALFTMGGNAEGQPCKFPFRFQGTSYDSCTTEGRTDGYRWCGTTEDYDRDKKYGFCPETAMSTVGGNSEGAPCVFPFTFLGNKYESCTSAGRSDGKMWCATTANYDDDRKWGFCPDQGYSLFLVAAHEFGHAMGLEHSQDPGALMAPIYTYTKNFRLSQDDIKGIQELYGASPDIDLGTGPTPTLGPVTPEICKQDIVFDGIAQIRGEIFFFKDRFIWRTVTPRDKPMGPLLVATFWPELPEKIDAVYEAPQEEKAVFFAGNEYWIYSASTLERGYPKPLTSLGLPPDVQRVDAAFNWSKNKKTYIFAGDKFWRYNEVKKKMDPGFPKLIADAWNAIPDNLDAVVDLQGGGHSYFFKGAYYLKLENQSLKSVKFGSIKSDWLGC

[4] = molecular target: T3, Matrix metalloproteinase-9 (Homo sapiens, UniProt P14780); experiment: Inhibition of human MMP9 measured at 5 mins interval for 1 hr by fluorescence method
T3 sequence (P14780 whole entry): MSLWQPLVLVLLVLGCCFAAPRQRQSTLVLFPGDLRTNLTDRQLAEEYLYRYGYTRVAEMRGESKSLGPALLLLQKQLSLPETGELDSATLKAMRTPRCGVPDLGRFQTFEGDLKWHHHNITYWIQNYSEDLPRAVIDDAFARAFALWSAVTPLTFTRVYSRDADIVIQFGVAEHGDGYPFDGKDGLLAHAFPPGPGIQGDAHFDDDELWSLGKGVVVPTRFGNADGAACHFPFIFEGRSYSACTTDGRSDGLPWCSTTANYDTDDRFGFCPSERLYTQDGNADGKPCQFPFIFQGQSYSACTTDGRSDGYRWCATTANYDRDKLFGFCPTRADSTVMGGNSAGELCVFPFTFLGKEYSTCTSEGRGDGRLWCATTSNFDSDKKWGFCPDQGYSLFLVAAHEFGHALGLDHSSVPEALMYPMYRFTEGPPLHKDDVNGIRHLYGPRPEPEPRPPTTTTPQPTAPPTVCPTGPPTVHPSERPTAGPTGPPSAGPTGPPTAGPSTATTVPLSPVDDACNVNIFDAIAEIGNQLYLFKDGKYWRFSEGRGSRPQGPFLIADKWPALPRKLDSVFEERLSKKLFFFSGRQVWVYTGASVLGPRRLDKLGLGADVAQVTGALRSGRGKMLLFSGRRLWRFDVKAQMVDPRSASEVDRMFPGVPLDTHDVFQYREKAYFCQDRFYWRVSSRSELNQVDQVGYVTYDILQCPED

Matrilysin = molecular target: T4, Matrilysin (Homo sapiens, UniProt P09237); experiment: Inhibition of human MMP7 using 3163v as substrate preincubated for 15 mins followed by substrate addition and measured after 40 mins by fluorometric method
T4 sequence (P09237 whole entry): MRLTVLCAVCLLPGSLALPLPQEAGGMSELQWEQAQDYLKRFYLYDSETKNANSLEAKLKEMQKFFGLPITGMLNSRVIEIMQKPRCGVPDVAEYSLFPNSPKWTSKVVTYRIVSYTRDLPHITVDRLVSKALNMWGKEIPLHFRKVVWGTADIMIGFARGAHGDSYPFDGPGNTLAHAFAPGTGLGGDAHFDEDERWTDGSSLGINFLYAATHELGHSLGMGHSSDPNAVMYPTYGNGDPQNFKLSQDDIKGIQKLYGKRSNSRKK

Stromelysin-1 = Stromelysin-1 (Homo sapiens, UniProt P08254); experiment: Inhibition of MMP3 (unknown origin) using 3168v as substrate preincubated for 15 mins followed by substrate addition and measured after 40 mins by fluorometric method
Sequence of Stromelysin-1 (P08254 whole entry): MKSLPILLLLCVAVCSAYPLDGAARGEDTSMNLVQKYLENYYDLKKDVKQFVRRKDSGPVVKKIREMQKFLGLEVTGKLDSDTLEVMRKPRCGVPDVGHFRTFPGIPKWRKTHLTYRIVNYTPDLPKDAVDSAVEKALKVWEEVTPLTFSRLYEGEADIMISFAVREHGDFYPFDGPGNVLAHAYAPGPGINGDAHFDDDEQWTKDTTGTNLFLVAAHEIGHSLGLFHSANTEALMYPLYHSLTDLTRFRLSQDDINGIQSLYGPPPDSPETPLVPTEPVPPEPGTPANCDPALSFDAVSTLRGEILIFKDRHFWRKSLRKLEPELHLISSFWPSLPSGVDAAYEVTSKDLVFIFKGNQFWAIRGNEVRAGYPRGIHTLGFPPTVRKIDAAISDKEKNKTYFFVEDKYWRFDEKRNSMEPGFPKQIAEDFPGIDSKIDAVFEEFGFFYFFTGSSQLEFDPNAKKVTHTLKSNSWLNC

[5] = molecular target: T2, 72 kDa type IV collagenase; experiment: Inhibition of MMP2 (unknown origin) using 3163v as substrate preincubated for 15 mins followed by substrate addition and measured after 40 mins by fluorometric method
[6] = molecular target: T3, Matrix metalloproteinase-9; experiment: Inhibition of human MMP9 using 3163v as substrate preincubated for 15 mins followed by substrate addition and measured after 40 mins by fluorometric method
[7] = molecular target: T1, Matrix metalloproteinase-14; experiment: Inhibition of human MT1-MMP using 3163v as substrate preincubated for 15 mins followed by substrate addition and measured after 40 mins by fluorometric method

- pIC50 [1]: < 4.00
Compound: CCCC(C)NC(=O)c1ccc(Cl)c(Cl)c1 (centres undefined)

- pIC50 [2]: 8.60
Compound: NC(=O)[C@H](CCC(=O)O)NC(=O)c1ccc(-c2cc(-c3ccccc3)cs2)cc1

- pIC50 [3]: 6.18
- pIC50 [4]: 6.51
Compound: CCCCCC(=O)N1CC(F)(F)C[C@@H]1C(=O)N(C)[C@H](C(=O)N[C@@H](CCNC(=O)c1ccccc1)C(=O)NO)[C@@H](C)CC

- pIC50 (Matrilysin): < 5.00
- pIC50 (Stromelysin-1): < 5.00
- pIC50 [5]: 7.52
- pIC50 [6]: < 5.00
- pIC50 [7]: 5.70
Compound: CC[C@H](C)[C@H](N)C(=O)N[C@@H](CO)C(=O)N[C@@H](Cc1ccc(O)cc1)C(=O)NCC(=O)N[C@@H](CC(N)=O)C(=O)N[C@@H](CC(=O)O)C(=O)N[C@@H](C)C(=O)N[C@@H](CC(C)C)C(=O)N[C@@H](CCSC)C(=O)N1CCC[C@H]1C(=O)O (H-ISYGNDALMP-OH)

From ChEMBL document CHEMBL4665676, “Matrix Metalloproteinases as New Targets in Alzheimer's Disease: Opportunities and Challenges” (J Med Chem, 2020)
